Experiments:
[1] = Pharmacokinetics in female rats; type: in vivo, rat; settings: for FR Fp.o.: AUCp.o./AUCi.v.; for Tmax: rat, plasma, po, dose and vehicle per footnote, read-out: FR Tmax hr
Description: Rats (male or female, 200-225 g) are prepared with indwelling jugular vein cannula as described by Harms et al., Applied Physiol. 36:391-398 (1974), and allowed to recover overnight with free access to the standard vivarium chow and water. […] […] The blood samples are withdrawn at specific times, plasma is immediately separated and compound extracted with ethyl acetate. The samples are analyzed by LC-MS using 30-90% gradient of ACN in 50 mM ammonium acetate.
The pharmacokinetic parameters are calculated using WinNonlin software (Scientific Consulting Inc.). The bioavailability is calculated as AUCp.o./AUCi.v., where AUCp.o. and AUCi.v. are areas under the plasma concentration-time curve after oral and i.v. administration, respectively.

[2] = In vitro metabolism: disappearance of parent compound in liver microsomes (female rat); type: in vitro ADME; settings: 5 uM compound, 0.5 mg/ml microsomal protein, 2 mM NADPH, 30 minutes at 37° C.
Description: (§1) Human, rat, dog, and monkey liver microsomes are isolated by differential centrifugation. Specimens of human liver were obtained from the International Institute for the Advancement of Medicine (Scranton, Pa.). The disappearance of the parent compound is studied in a mixture containing 5 uM compound, 0.5 mg/ml microsomal protein, and 2 mM NADPH in 50 mM K Phosphate buffer, pH 7.4. Samples are incubated for 30 minutes at 37° C. The reaction is terminated by the addition of acetonitrile and compounds analyzed by LC-MS as described above.

[3] = molecular target: T1, rat GnRH receptor (Rattus norvegicus, UniProt P30969); test: Radioligand binding assay: inhibition of binding of 125I-GnRH-A to GnRH receptors (membranes); settings: competition with 125I-GnRH-A, Ki calculated from IC50 (Cheng et al.)
T1 construct: rat pituitaries (Pel Freez Biologicals, Rogers, Ark.) are homogenized in buffer A; tissue Pel Freez Biologicals; host or cells: rat pituitaries
T1 sequence (P30969 1-327): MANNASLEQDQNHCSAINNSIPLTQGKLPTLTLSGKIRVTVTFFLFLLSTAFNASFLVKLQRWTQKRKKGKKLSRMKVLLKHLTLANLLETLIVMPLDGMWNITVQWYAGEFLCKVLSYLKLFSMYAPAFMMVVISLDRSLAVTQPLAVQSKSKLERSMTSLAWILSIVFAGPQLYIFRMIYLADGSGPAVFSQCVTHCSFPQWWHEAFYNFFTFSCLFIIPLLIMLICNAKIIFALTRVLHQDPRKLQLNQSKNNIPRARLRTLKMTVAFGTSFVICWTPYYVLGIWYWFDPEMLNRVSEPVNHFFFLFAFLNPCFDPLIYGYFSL
Method in brief: (§2)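 Membranes from HEK 293 expressing mouse or human receptor, or rat pituitaries, incubated 1 h at RT with ~0.04–0.06 nM ¹²⁵I-[des-Gly¹⁰,D-Ala⁶]GnRH ethylamide and competitor (0.1–10,000 nM) in HEPES pH 7.4 with MgCl2, EDTA, BSA. Filtration onto PEI-soaked GF/C filters, scintillation counting; Ki from IC50 by Cheng–Prusoff.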

[4] = molecular target: T2, mouse GnRH receptors (Mus musculus, UniProt Q01776); test: as above; settings: Mouse GnRH receptor; competition with 125I-GnRH-A; Ki calculated from IC50 (Cheng et al.)
T2 construct: expressed in transfected cells; host or cells: HEK 293
T2 sequence (Q01776 1-327): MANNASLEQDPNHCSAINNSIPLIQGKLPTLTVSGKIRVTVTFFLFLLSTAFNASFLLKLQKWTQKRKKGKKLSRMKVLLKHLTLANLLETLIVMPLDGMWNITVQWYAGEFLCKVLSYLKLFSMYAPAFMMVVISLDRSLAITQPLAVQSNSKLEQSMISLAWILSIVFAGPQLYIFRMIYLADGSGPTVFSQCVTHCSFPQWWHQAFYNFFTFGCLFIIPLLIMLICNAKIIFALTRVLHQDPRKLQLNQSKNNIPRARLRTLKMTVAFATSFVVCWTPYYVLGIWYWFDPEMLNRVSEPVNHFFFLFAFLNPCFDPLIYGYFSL
Method in brief: as §2

[5] = molecular target: T3, human GnRH receptors (Homo sapiens, UniProt P30968); test: as above; settings: Human GnRH receptor; competition with 125I-GnRH-A; Ki calculated from IC50 (Cheng et al.)
T3 construct: expressed in transfected cells; host or cells: HEK 293
T3 sequence (P30968 1-328): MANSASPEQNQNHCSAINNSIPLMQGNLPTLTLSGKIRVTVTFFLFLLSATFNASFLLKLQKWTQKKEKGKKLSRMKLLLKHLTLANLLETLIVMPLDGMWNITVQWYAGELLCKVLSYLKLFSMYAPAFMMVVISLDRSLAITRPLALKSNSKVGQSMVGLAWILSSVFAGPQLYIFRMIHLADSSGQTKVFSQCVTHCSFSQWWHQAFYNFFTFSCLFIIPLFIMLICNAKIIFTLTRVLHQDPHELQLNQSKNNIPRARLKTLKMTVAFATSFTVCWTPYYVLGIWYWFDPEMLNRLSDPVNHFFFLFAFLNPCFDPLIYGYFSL
Method in brief: as §2

[6] = In vitro metabolism: disappearance of parent compound in liver microsomes (male rat); type: in vitro ADME; settings: 5 uM compound, 0.5 mg/ml microsomal protein, 2 mM NADPH, 30 minutes at 37° C.
Description: as §1

[7] = In vitro metabolism: disappearance of parent compound in liver microsomes; type: in vitro ADME; settings: human liver microsomes; 5 uM compound, 0.5 mg/ml microsomal protein, 2 mM NADPH, 30 minutes at 37° C.
Description: as §1

Row | FR Fp.o. ([1]; 10 mg/kg as 5 mg/ml solution in 10% cremophor 90% saline) | Tmax [1] | Fem. t % rem. 30′ [2] | Ki [3] | Ki [4] | Ki [5] | Male t % p. 30′ [6] | Huma % p. 30′ [7] | FR Fp.o. ([1]; 10 mg/kg as 5 mg/ml solution in 10% DMSO 105 cremophor 80% saline) | Structure (SMILES)
1 | 8%^3 | 30 min | 22% | 8.5 nM | 8.2 nM | 3.3 nM | 93% | 65% | – | Cc1cc2c(cc1Oc1ccc(C(=O)NNc3cc(C)c4c(C)nn(C)c4n3)o1)C(C)(C)CCC2(C)C [Example F2]
2 | – | 30 min | 9% | 20 nM | 50 nM | 35 nM | 89% | 57% | 4%^2 | Cc1ccc(C(C)(C)C)cc1Cc1ccc(C(=O)NNc2cc(C)c3c(C)nn(C)c3n2)o1 [Example J7, 5-[5-(tert-butyl)-2-methylbenzyl]-N′-(1,3,4-trimethyl-1H-pyrazolo[3,4-b]pyridin-6-yl)-2-furohydrazide]

Reference: US6903132B2, “Non-peptide GnRH agents, pharmaceutical compositions and methods for their use” (Agouron Pharmaceuticals, Inc., priority 2002, dated 2005)
